One data set concerns the target T1, CXCR4 (U87.CXCR4 cells) (Homo sapiens, UniProt P61073).
T1 construct: expressed in transfected cells; host or cells: U87 (U87.CXCR4)
Nature of the data set: Intracellular CXCL-12-induced calcium mobilization assay (FLIPR). The class given is cell-based. The following applies: CXCL-12 25-50 ng/mL, read-out: IC50 CXCL-12 Ca2+ flux U87.CXCR4+. Summed up: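 U87.CXCR4 cells were loaded with 4 μM Fluo-2 AM for 45 min at 37 °C in HBSS/20 mM HEPES/0.2% BSA, pH 7.4. Calcium flux induced by CXCL-12 (25-50 ng/mL) was monitored kinetically by FLIPR fluorescence at 37 °C.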

Another data set can be described thus: in vitro. The note with it: human, Caco-2, pH 7.4. Summed up: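 Compound at 10 μM in HBSS pH 7.4 dosed A-to-B and B-to-A across Caco-2 monolayers, 90 min at 37 °C, duplicates. Monolayer integrity by TEER and lucifer yellow (5 μM, fluorescence 485/535 nm); compound quantified by LC-MS/MS.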
Data set [1] is described as follows: Fraction of drug unbound to plasma proteins. The class given is in vitro ADME, Mouse. The following applies: read-out: Fu (p) % (fraction of drug unbound to plasma proteins).
Data set [2] addresses T2, CXCR4 (Jurkat cells expressing CXCR4) (Homo sapiens, UniProt P61073).
T2 construct: Jurkat cells expressing CXCR4; endogenous in cells; host or cells: Jurkat
Put plainly: Chemokine (CXCL12-AF647) binding inhibition assay. The following applies: CXCL12-AF647 25 ng/mL, read-out: IC50 CXCL-12 binding Jurkat. In outline:
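Cells in HBSS, 20 mM HEPES, 0.2% BSA, pH 7.4, preincubated 15 min at room temperature with compound, then 25 ng/mL CXCL12-AF647 for 30 min. After washing and paraformaldehyde fixation, bound ligand read by flow cytometry; percent inhibition calculated from MFI relative to unlabeled and ligand-only controls.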

Data set [3] can be described thus: Fraction of drug unbound to brain proteins. The format is in vitro ADME, Mouse. The following applies: read-out: Fu (b) % (fraction of drug unbound to brain proteins).

T2 sequence (P61073 whole entry): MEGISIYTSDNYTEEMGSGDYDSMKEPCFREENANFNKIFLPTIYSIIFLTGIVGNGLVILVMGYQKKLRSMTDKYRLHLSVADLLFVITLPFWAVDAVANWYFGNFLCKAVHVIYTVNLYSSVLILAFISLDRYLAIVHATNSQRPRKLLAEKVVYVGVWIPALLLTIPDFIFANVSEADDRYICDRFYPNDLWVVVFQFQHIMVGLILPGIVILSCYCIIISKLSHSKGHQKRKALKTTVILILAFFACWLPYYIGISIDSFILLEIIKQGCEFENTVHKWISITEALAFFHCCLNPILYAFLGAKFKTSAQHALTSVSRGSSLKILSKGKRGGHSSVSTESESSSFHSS
T1 sequence (P61073 whole entry): as above

Turning to `CN1CCN(c2cccc3[nH]c(CN4CCCC4c4ncccc4Cl)nc23)CC1` (stereo not drawn) [Compound I-26], the half-maximal inhibitory concentration (IC50) on CXCR4 (U87.CXCR4 cells) was in the range of 100 to 1000 nM. Also, in the data set “in vitro”, the apical-to-basolateral permeability (Papp A→B) at 90 min, 10 μM was in the range of 10 to 30 ×10⁻⁶ cm/s; the Papp B→A at 90 min, 10 μM was in the range of 10 to 30 ×10⁻⁶ cm/s; the efflux ratio at 90 min, 10 μM lay in the range of 0.1 to 10. The unbound share (fraction unbound) in data set [1] (Table 9, mouse) is 0.127. In addition, the 50% inhibitory concentration (IC50) in data set [2] lay in the range of 0.01 to 100 nM. For the same molecule, the free fraction (fraction unbound) in data set [3] (Table 9, mouse) amounted to 0.076.
As for `Cc1cccnc1C1CCCN1Cc1cn2c(N3CCN(C)C4(CC4)C3)cccc2n1` (stereo not drawn) [Compound I-29], the 50% inhibitory concentration (IC50) on CXCR4 (U87.CXCR4 cells) was 100 to 1000 nM. Also, in the data set “in vitro”, the Papp A→B at 90 min, 10 μM lay within 10 to 30 ×10⁻⁶ cm/s; the Papp B→A at 90 min, 10 μM was 10 to 30 ×10⁻⁶ cm/s; the efflux ratio at 90 min, 10 μM is 0.1 to 10. Moreover, the fraction unbound in data set [1] (Table 10, mouse) was 0.455. In data set [2], the IC50 fell in the range of 100 to 1000 nM. For the same molecule, the fraction unbound in data set [3] (Table 10, mouse) turned out to be 0.063.
As for `Cc1cccnc1C1CCCN1Cc1nc2cccc(N3CCN(C4CC4)CC3)c2[nH]1` (stereo not drawn) [Compound I-31], the half-inhibitory concentration (IC50) at CXCR4 (U87.CXCR4 cells) was in the range of 100 to 1000 nM. In “in vitro”, the Papp A→B at 90 min, 10 μM was 10 to 30 ×10⁻⁶ cm/s; the Papp B→A at 90 min, 10 μM fell in the range of 10 to 30 ×10⁻⁶ cm/s; the efflux ratio at 90 min, 10 μM lay in the range of 0.1 to 10. In addition, in data set [1] (Table 10, mouse), the unbound share (fraction unbound) came out at 0.05. Besides, the IC50 in data set [2] lay within 0.01 to 100 nM. For the same molecule, the fraction unbound in data set [3] (Table 10, mouse) is 0.008.
For the molecule `CN1CCN(c2c(CN3CCCC3c3ccccn3)nc3ccccn23)CC1` (stereo not drawn) [Compound I-41], the half-inhibitory concentration (IC50) on CXCR4 (U87.CXCR4 cells) was 0.01 to 100 nM. Also, in the data set “in vitro”, the Papp A→B at 90 min, 10 μM lay in the range of 10 to 30 ×10⁻⁶ cm/s; the basolateral-to-apical permeability (Papp B→A) at 90 min, 10 μM is 10 to 30 ×10⁻⁶ cm/s; the efflux ratio at 90 min, 10 μM lay in the range of 0.1 to 10. Further, the fraction unbound in data set [1] (Table 9, mouse) is 0.239. In addition, in data set [2], the IC50 was in the range of 0.01 to 100 nM. Further, the fraction unbound in data set [3] (Table 9, mouse) came to 0.069.
In the case of `CN1CCN(c2c(CN3CCCC3c3ccccn3)nc3ccc(F)cn23)CC1` (stereo not drawn) [Compound I-63], the half-maximal inhibitory concentration (IC50) (on CXCR4 (U87.CXCR4 cells); in data set [2]) was 0.01 to 100 nM each time. This molecule also showed an apparent permeability from apical to basolateral (Papp A→B) at 90 min, 10 μM in “in vitro” of 10 to 30 ×10⁻⁶ cm/s. The molecule also came in with a basolateral-to-apical permeability (Papp B→A) at 90 min, 10 μM in “in vitro” of 10 to 30 ×10⁻⁶ cm/s. In addition, the efflux ratio at 90 min, 10 μM in “in vitro” fell in the range of 0.1 to 10. Also, the fraction unbound in data set [1] (Table 9, mouse) turned out to be 0.133; in data set [3] (Table 9, mouse), 0.053.
With `CN1CCN(c2c(CN3CCCC3c3nccs3)nc3ccccn23)CC1` (stereo not drawn) [Compound I-70], on CXCR4 (U87.CXCR4 cells), the 50% inhibitory concentration (IC50) lay within 0.01 to 100 nM. Further, in “in vitro”, the apparent permeability from apical to basolateral (Papp A→B) at 90 min, 10 μM lay within 10 to 30 ×10⁻⁶ cm/s; the basolateral-to-apical permeability (Papp B→A) at 90 min, 10 μM was in the range of 10 to 30 ×10⁻⁶ cm/s; the efflux ratio at 90 min, 10 μM is 0.1 to 10. In addition, the fraction unbound in data set [1] (Table 9, mouse) amounted to 0.148. In data set [2], the 50% inhibitory concentration (IC50) lay in the range of 0.01 to 100 nM. For the same molecule, in data set [3] (Table 9, mouse), the fraction unbound was determined as 0.207.

As usually defined, the IC50 is the point on the concentration scale where inhibition reaches its midpoint. For orientation: Papp A→B means the apparent permeability from the apical to the basolateral side of a cell layer. What is called Papp B→A is how fast a substance crosses the layer from the basolateral side. What is called efflux ratio is the permeability from basolateral to apical divided by that in the opposite direction, in the common usage. By fraction unbound is commonly meant free concentration divided by total concentration.
